Reference: paper PMC11513923, “Discovery of ZLC491 as a Potent, Selective, and Orally Bioavailable CDK12/13 PROTAC Degrader” (Journal of Medicinal Chemistry, 2024)

Key:
CDK12/13 = assay: Immunoblotting of CDK12 and CDK13 in HCC38 cells; assay type: cell-based, human; settings: increasing concentrations, 15 h
Procedure: To further characterize the compound, we determined the half-degradation concentration (DC50) values of ZLC491 in MDA-MB-231 cells. […] We also treated MDA-MB-231 cells with 1 μM ZLC491 at various time points.
(A) Immunoblotting of CDK12 and CDK13 in MDA-MB-231 cells treated with increasing concentrations of ZLC491 for 15 h (left). Percent remaining CDK12 and CDK13 proteins were plotted for DC50 determination (right). Protein levels were quantified using ImageJ and normalized to corresponding α-tubulin, then plotted using Graphpad Prism 8.0. The data were representative of three independent experiments; (B) immunoblotting of CDK12 and CDK13 proteins in MDA-MB-231 cells treated with ZLC491 for various time points; immunoblotting of CDK12 and CDK13 in HCC38 (C) and MDA-MB-436 (D) cells treated with increasing concentrations of ZLC491 for 15 h. α-Tubulin was used as a loading control. TEXT PRINTED IN THE PICTURE: (A) ZLC491: MDA-MB-231: CDK12 DC50 = 0.032μM; MDA-MB-231: CDK13 DC50 = 0.028μM DOUBTS OF THE COPYIST ABOUT THIS PICTURE: ZLC491, CDK12 DC50: 0.032 read from small print, the digits 3 and 2 are uncertain / ZLC491, CDK13 DC50: 0.028 read from small print, the last digit may be 8, 6 or 3 […]

CCNK = assay: TMT-labeled quantitative proteomics in MDA-MB-231 cells; assay type: cell-based, Homo sapiens; settings: 8 h
Procedure: (§1) The global proteomic selectivity of ZLC491 was investigated by using the tandem mass tag (TMT) labeled mass-spectrometry. […] CDK13 was not detected in either degrader treatment groups or DMSO control groups, likely due to its insufficient cellular expression for mass spectrometry detection.
(§2) Figure 5 ZLC491 degraded CDK12/13 with high selectivity. (A) Global proteomic analysis of ZLC491 in MDA-MB-231 cells after 8 h treatment of DMSO or 2 μM ZLC491; (B) mass-spec quantification of CDKs changes; (C) immunoblotting of target protein degradation in samples for proteomic analysis.
MDA-MB-231 cells were seeded at 8 × 10^5 cells in 6 cm dishes 24 h before treating with 2 μM ZLC491 or DMSO in quadruplicate or triplicate for 8 h. […] Samples were quantified using a micro-BCA protein assay kit (Thermo Fisher Scientific) and 600 μg of each sample was processed and digested using the filter aided sample preparation (FASP) method followed by alkylation with iodoacetamide and digestion with trypsin. […]
The fractions were analyzed sequentially on an Orbitrap Fusion Lumos Mass Spectrometer (Thermo Scientific) coupled to a NanoLC-1200 UHPLC system (Thermo Scientific) with C18 capillary column. […] MS3 precursor were fragmented by HCD and analyzed with Orbitrap at NCE 65, AGC 1E5, resolution 60000. […]

CDK12 = CDK12 (Homo sapiens, UniProt Q9NYV4); assay: as above; assay type: cell-based; design: endogenous in cells; host or cells: MDA-MB-231; settings: 8 h
Procedure: as §1, §2
MDA-MB-231 cells were seeded at 8 × 10^5 cells in 6 cm dishes 24 h before treating with 2 μM ZLC491 or DMSO in quadruplicate or triplicate for 8 h. Cell lysates were prepared by washing cells twice with cold PBS and adding 180 μL lysis buffer (10 mM HEPES, pH 7.0, 1% (w/v) SDS, 2 mM MgCl·6H2O supplemented with 0.1% BeyoZonase (Beyotime)) per dish. Samples were quantified using a micro-BCA protein assay kit (Thermo Fisher Scientific) and 600 μg of each sample was processed and digested using the filter aided sample preparation (FASP) method followed by alkylation with iodoacetamide and digestion with trypsin. The samples were then desalted using Oasis HLB C18 SPE cartridge column (Waters, WAT094225). The peptides were lyophilized and reconstituted, then 25 μg peptides of each sample were labeled with TMT 11-plex Isobaric Label Reagent Set (Thermo Fisher Scientific) as the manufacturer’s instructions. After labeling, the peptides from the 11 samples were pooled together. […]
The fractions were analyzed sequentially on an Orbitrap Fusion Lumos Mass Spectrometer (Thermo Scientific) coupled to a NanoLC-1200 UHPLC system (Thermo Scientific) with C18 capillary column. […] MS3 precursor were fragmented by HCD and analyzed with Orbitrap at NCE 65, AGC 1E5, resolution 60000.
The raw MS data files for all 11 fractions were searched against the Uniprot-Human-Canonical database by Proteome Discoverer 2.0 for protein identification and TMT reporter ion quantitation. […]

Chain of CDK12 (Q9NYV4 whole entry): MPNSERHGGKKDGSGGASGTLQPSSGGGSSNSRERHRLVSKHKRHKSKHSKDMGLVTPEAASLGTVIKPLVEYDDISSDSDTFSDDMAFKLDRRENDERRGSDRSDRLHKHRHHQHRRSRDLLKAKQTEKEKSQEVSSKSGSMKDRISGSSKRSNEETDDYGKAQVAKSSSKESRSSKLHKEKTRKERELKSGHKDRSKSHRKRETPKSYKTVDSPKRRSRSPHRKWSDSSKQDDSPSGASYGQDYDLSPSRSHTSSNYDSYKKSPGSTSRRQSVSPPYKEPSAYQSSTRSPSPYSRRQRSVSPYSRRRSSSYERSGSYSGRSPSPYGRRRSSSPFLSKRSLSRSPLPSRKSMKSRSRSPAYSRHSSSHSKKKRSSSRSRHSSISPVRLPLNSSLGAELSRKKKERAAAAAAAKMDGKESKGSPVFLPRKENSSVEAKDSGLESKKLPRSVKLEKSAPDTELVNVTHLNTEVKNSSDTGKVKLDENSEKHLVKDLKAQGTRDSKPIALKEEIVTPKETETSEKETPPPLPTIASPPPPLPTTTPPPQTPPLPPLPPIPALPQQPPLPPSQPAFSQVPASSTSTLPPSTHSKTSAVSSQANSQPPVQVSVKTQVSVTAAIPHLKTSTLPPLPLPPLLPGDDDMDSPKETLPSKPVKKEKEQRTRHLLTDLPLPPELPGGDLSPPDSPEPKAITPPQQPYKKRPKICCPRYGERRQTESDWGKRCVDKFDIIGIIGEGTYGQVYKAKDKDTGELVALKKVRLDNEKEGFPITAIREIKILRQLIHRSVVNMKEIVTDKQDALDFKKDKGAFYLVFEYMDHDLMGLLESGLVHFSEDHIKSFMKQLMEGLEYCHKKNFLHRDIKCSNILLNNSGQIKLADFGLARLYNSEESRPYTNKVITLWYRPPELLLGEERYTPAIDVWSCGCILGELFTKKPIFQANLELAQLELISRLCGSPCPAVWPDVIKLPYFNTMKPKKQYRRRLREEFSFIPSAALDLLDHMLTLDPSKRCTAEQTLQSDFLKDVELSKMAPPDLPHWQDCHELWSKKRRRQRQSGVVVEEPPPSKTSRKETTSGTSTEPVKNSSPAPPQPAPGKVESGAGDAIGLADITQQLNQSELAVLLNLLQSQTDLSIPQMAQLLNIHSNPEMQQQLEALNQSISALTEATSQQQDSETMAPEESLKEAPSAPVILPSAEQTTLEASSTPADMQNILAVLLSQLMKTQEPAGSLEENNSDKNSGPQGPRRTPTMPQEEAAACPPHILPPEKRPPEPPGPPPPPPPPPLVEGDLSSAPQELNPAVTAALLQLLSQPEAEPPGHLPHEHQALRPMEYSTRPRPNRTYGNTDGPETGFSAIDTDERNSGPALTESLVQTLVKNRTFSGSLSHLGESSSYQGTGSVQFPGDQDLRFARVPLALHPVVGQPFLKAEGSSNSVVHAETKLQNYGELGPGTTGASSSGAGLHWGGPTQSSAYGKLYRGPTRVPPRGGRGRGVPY
Chain of CDK12 (O75909 whole entry partner): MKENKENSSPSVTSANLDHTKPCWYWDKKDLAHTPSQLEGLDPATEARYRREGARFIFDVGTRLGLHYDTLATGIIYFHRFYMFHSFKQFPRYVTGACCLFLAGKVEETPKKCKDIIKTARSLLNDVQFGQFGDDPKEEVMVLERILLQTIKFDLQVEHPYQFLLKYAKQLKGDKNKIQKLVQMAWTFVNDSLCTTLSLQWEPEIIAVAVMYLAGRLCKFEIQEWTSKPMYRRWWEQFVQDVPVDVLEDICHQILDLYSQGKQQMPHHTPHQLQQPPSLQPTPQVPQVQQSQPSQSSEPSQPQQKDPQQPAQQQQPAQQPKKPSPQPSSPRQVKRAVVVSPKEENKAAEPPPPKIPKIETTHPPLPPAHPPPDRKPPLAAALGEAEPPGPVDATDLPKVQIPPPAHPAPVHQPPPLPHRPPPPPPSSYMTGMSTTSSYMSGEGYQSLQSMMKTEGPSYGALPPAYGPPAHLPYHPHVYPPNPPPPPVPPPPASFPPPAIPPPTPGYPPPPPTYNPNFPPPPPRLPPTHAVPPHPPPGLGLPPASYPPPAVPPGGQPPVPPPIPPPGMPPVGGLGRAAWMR

For `N#Cc1ccc(N[C@H]2CC[C@H](N(C(=O)NCc3ccccc3)c3ccc(N4CCN(C5CCN(c6cc7c(cc6F)C(=O)N(C6CCC(=O)NC6=O)C7=O)CC5)CC4)cc3)CC2)nc1` (stereo partly drawn) [ZLC491, 3-Benzyl-1-((1r,4r)-4-((5-cyanopyridin-2-yl)amino)cyclohexyl)-1-(4-(4-(1-(2-(2,6-dioxopiperidin-3-yl)-6-fluoro-1,3-dioxoisoindolin-5-yl)piperidin-4-yl)piperazin-1-yl)phenyl)urea], the “depletion of CDK12/13” value (CDK12/13) was “concentration-dependent manner”, the “FC_4-91 (CCNK)” value (CCNK; 2 μM ZLC491 vs DMSO) was 0.4255 and the “CCNK level in global proteomics” value (CCNK; 2 μM) was “significantly decreased”. For the same compound, the “FC_4-91 (CDK12)” value (CDK12; 2 μM ZLC491 vs DMSO) was 0.249, the “CDK12 level in global proteomics” value (CDK12; 2 μM) was “significantly decreased” and the “selectivity among CDKs in global proteomics” value (CDK12; 2 μM) was “selective for CDK12 over other CDKs”.
